Laboratory results as given in patent publication US20050009924A1 (priority 2003, published 2005).

Tests used:
[1] = tested on: transcriptional activity of hTERT; assay: SEAP reporter assay of hTERT expression, PhTERT-SEAP (H1299); format: cell-based, human; conditions: Homo sapiens, NCI-H1299, H1299, read-out: Relative SEAP activity (%)
Method in brief: (§1)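 We treated G418-selected reporter cells with varying drug amounts for 24 h and measured SEAP in the heat-inactivated medium as the rate of 405 nm absorbance increase.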

[2] = tested on: iron-induced lipid peroxidation in rat brain homogenates; assay: Iron-induced lipid peroxidation in rat brain homogenates; conditions: for Inhibition of LP(10 mM): mean percent inhibition (Table 3); for LP (%) (10 mM): relative percentage of inhibition (Table 1)
[3] = MTT relative viability, PhTERT-SEAP (H1299) cells; conditions: human
[4] = tested on: transcriptional activity of hTERT; assay: SEAP reporter assay of hTERT expression, PhTERT-SEAP (hTERT-BJ1); format: cell-based, human; conditions: Homo sapiens, hTERT-BJ1, read-out: Relative SEAP activity (%)
Method in brief: as §1

human hepatoma G2 cells = assay: Cytotoxicity assay (XTT colorimetric), Hep G2; format: cell-based; conditions: Homo sapiens, HepG2; 48 h of drug exposure
rat glioma C6 cells = assay: Cytotoxicity assay (XTT colorimetric), C6 cells; format: cell-based; conditions: Rattus norvegicus, C6; 48 h of drug exposure
[5] = MTT relative viability, PhTERT-SEAP (hTERT-BJ1) cells; conditions: human
[6] = hTERT-BJ1 cells, stable PhTERT-SEAP reporter clone

| SMILES | IC50 (human hepatoma G2 cells) [µM] | melting point [°C] | IC50 (rat glioma C6 cells) [µM] | LP (%) (10 mM) ([2]; 10 mM) | activity at 2.2 µM [1] [%] | activity at 22 µM [1] [%] | activity at 220 µM [1] [%] | viability at 48 h, 2.2 µM [3] [%] | viability at 48 h, 22 µM [3] [%] | viability at 48 h, 220 µM [3] [%] | activity at 2.2 µM [4] [%] | activity at 22 µM [4] [%] | activity at 220 µM [4] [%] | viability at 48 h, 2.2 µM [5] [%] | viability at 48 h, 22 µM [5] [%] | viability at 48 h, 220 µM [5] [%] | further results |
| --- | --- | --- | --- | --- | --- | --- | --- | --- | --- | --- | --- | --- | --- | --- | --- | --- | --- |
| O=C(Cc1ccccc1)Oc1cccc2c1C(=O)c1cccc(OC(=O)Cc3ccccc3)c1C2=O [IIIm, 1,5-Bis(phenylacetyloxy)-anthraquinone] | 9 ± 1.5 | 202 to 203 | 39.1 ± 6.2 | – | – | – | – | – | – | – | – | – | – | – | – | – | activity at 2.1 µM [1]: 98 ± 0.3%; activity at 21 µM [1]: 101 ± 6.8%; activity at 210 µM [1]: 142 ± 14%; Inhibition of LP(10 mM) ([2]; 10 mM): −1 ± 0.2%; viability at 48 h, 2.1 µM [3]: 91 ± 4.2%; viability at 48 h, 21 µM [3]: 53 ± 2.3%; viability at 48 h, 210 µM [3]: 30 ± 1.6%; activity at 2.1 µM [4]: 129 ± 4.5%; activity at 21 µM [4]: 125 ± 4.3%; activity at 210 µM [4]: 100 ± 17.3%; viability at 48 h, 2.1 µM [5]: 106 ± 9%; viability at 48 h, 21 µM [5]: 97 ± 8.2%; viability at 48 h, 210 µM [5]: 64 ± 10.2% |
| O=C(CCc1ccccc1)Oc1cccc2c1C(=O)c1cccc(OC(=O)CCc3ccccc3)c1C2=O [IIIn, 1,5-Bis(phenylpropionyloxy)-anthraquinone] | 0.4 ± 0.1 | 219 to 220 | 40.1 ± 5.5 | – | – | – | – | – | – | – | – | – | – | – | – | – | activity at 2 µM ([1]; 2.0 μM): 94 ± 2.5%; activity at 20 µM ([1]; 20 μM): 98 ± 4.7%; activity at 200 µM ([1]; 200 μM): 89 ± 5.2%; Inhibition (%) ([2]; 0.01 mM): 50 ± 0.8%; Inhibition (%) ([2]; 0.1 mM): 95 ± 2.0%; Inhibition (%) ([2]; 1 mM): >100%; Inhibition (%) ([2]; 10 mM): >100%; Inhibition of LP(10 mM) ([2]; 10 mM): >100%; viability at 48 h, 2 µM [3]: 111 ± 0.8%; viability at 48 h, 20 µM [3]: 101 ± 4.3%; viability at 48 h, 200 µM [3]: 54 ± 4.1%; activity at 2 µM ([4]; 2.0 μM): 126 ± 6.1%; activity at 20 µM ([4]; 20 μM): 124 ± 13.4%; activity at 200 µM ([4]; 200 μM): 110 ± 10.5%; viability at 48 h, 2 µM [5, 6]: 111 ± 7.3%; viability at 48 h, 20 µM [5, 6]: 106 ± 6.6%; viability at 48 h, 200 µM [5, 6]: 76 ± 7.2% |
| CCSc1cccc2c1C(=O)c1cccc(SCC)c1C2=O [IIa, 1,5-Bis(ethylthio)-anthraquinone] | 12.2 ± 1.1 | 235 to 236 | 0.02 ± 0.01 | 83 ± 2.2 | – | – | – | – | – | – | – | – | – | – | – | – | activity at 3 µM ([1]; 3.0 μM): 134 ± 14.4%; activity at 30 µM ([1]; 30 μM): 111 ± 7.7%; activity at 300 µM ([1]; 300 μM): 99 ± 14.3%; viability at 48 h, 3 µM [3]: 111 ± 2.8%; viability at 48 h, 30 µM [3]: 44 ± 7.3%; viability at 48 h, 300 µM [3]: 25 ± 2.3%; activity at 3 µM ([4]; 3.0 μM): 109 ± 22.4%; activity at 30 µM ([4]; 30 μM): 110 ± 14.3%; activity at 300 µM ([4]; 300 μM): 104 ± 20.6%; viability at 48 h, 3 µM [5]: 112 ± 9.2%; viability at 48 h, 30 µM [5]: 98 ± 12.3%; viability at 48 h, 300 µM [5]: 34 ± 18.1% |
| CCCSc1cccc2c1C(=O)c1cccc(SCCC)c1C2=O [IIc, 1,5-Bis(propylthio)-anthraquinone] | 75.1 ± 2.5 | 232 to 233 | 29.9 ± 2.1 | 15 ± 1.5 | – | – | – | – | – | – | – | – | – | – | – | – | activity at 2.8 µM ([1]; 2.8 μM): 73 ± 5.4%; activity at 28 µM ([1]; 28 μM): 29 ± 2.5%; activity at 280 µM ([1]; 280 μM): 17 ± 13.9%; viability at 48 h, 2.8 µM [3]: 96 ± 5.9%; viability at 48 h, 28 µM [3]: 44 ± 2.5%; viability at 48 h, 280 µM [3]: 25 ± 2.4%; activity at 2.8 µM ([4]; 2.8 μM): 132 ± 21%; activity at 28 µM ([4]; 28 μM): 110 ± 13.2%; activity at 280 µM ([4]; 280 μM): 122 ± 14.3%; viability at 48 h, 2.8 µM [5]: 103 ± 6.3%; viability at 48 h, 28 µM [5]: 97 ± 3%; viability at 48 h, 280 µM [5]: 39 ± 4.9% |
| O=C1c2cccc(SCCCCCCO)c2C(=O)c2cccc(SCCCCCCO)c21 [IIe, 1,5-Bis(hydroxyhexylthio)-anthraquinone] | 49.3 ± 2.1 | 195 to 196 | 31.7 ± 1.6 | 54 ± 1.9 | – | – | – | – | – | – | – | – | – | – | – | – | activity at 2.1 µM [1]: 110 ± 6.1%; activity at 21 µM [1]: 100 ± 5.5%; activity at 210 µM [1]: 68 ± 5.9%; viability at 48 h, 2.1 µM [3]: 99 ± 6.2%; viability at 48 h, 21 µM [3]: 94 ± 3.9%; viability at 48 h, 210 µM [3]: 36 ± 4.2%; activity at 2.1 µM [4]: 140 ± 9.7%; activity at 21 µM [4]: 128 ± 14.4%; activity at 210 µM [4]: 75 ± 17.4%; viability at 48 h, 2.1 µM [5]: 99 ± 6.2%; viability at 48 h, 21 µM [5]: 70 ± 2.2%; viability at 48 h, 210 µM [5]: 40 ± 4.7% |
| Nc1cccc(Sc2cccc3c2C(=O)c2cccc(Sc4cccc(N)c4)c2C3=O)c1 [IIg, 1,5-Bis(m-aminophenylthio)-Anthraquinone] | 21.5 ± 1.2 | 292 to 293 | 26.3 ± 2.8 | 6 ± 0.9 | 106 ± 7.6 | 109 ± 11.7 | 101 ± 7.3 | 92 ± 3.5 | 68 ± 1.9 | 32 ± 4.9 | 118 ± 9.9 | 41 ± 9.5 | 8 ± 30.6 | 104 ± 5.1 | 9 ± 3.4 | 4 ± 1.5 | – |
| Nc1ccc(Sc2cccc3c2C(=O)c2cccc(Sc4ccc(N)cc4)c2C3=O)cc1 [IIh, 1,5-Bis(p-aminophenylthio)-Anthraquinone] | 17.4 ± 1.5 | 364 to 365 | 0.05 ± 0.01 | 20 ± 1.4 | 100 ± 5.7 | 95 ± 2.6 | 84 ± 5.3 | 103 ± 4.3 | 76 ± 4 | 42 ± 2.3 | 97 ± 17.9 | 97 ± 14.5 | 26 ± 12.6 | 86 ± 11.9 | 65 ± 12.6 | 56 ± 13.8 | – |
| O=C1c2cccc(SCc3ccccc3)c2C(=O)c2cccc(SCc3ccccc3)c21 [IIi, 1,5-Bis(benzylthio)-anthraquinone] | 41.5 ± 2.5 | 281 to 282 | 38.2 ± 4.4 | >100 | 97 ± 6 | 100 ± 7.2 | 100 ± 12.9 | 83 ± 5.5 | 44 ± 0.9 | 34 ± 3.3 | 117 ± 11.3 | 112 ± 9.3 | 87 ± 11.1 | 121 ± 4.7 | 98 ± 4.2 | 47 ± 9.1 | Inhibition (%) ([2]; 0.01 mM): 24 ± 0.8%; Inhibition (%) ([2]; 0.1 mM): 60 ± 2.0%; Inhibition (%) ([2]; 1 mM): 95%; Inhibition (%) ([2]; 10 mM): >100% |
| O=C1c2cccc(SCCc3ccccc3)c2C(=O)c2cccc(SCCc3ccccc3)c21 [IIk, 1,5-Bis(phenylethylthio)-anthraquinone] | 36.9 ± 1.5 | 209 to 210 | 32.9 ± 3.3 | 69 ± 1.5 | 108 ± 0.5 | 102 ± 0.5 | 97 ± 4.8 | 93 ± 6.2 | 51 ± 9.3 | 27 ± 2.9 | 119 ± 12.2 | 109 ± 23.4 | 110 ± 30.6 | 91 ± 3.9 | 54 ± 4.4 | 35 ± 4.1 | – |
